Common to all, as to format: biochemical
The target of test [1] is T1, recombinant human cathepsin S (Homo sapiens, UniProt P25774).
T1 construct: purchased Calbiochem 219343; host or cells: E. coli
The test is described as follows: Cathepsin S kinetic fluorescence enzyme inhibition assay. As to conditions: selectivity ratio versus calpain I. The method in brief: (§1)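 Cathepsin B (0.25 nM, human liver) with 100 μM Z-Phe-Arg-AMC; L (1 nM, human liver) with 2 μM Z-Phe-Arg-AMC; S (0.5 nM, recombinant) with 20 μM Z-Val-Val-Arg-AMC. pH 6.0 MES buffer, 2.5 mM L-cysteine, room temperature. Kinetic fluorescence (ex 390/em 460 nm); apparent Ki from IC50 by Cheng-Prusoff.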

In test [2] the target is T2, cathepsin L isolated from human liver (Homo sapiens, UniProt P07711).
T2 construct: cathepsin L—isolated from human liver; purchased Calbiochem 219402; host or cells: human liver (tissue isolate)
Put plainly: Cathepsin L kinetic fluorescence enzyme inhibition assay. As to conditions: selectivity ratio versus calpain I. The procedure, abridged: as §1

In test [3] the target is T3, calpain-I isolated from human erythrocytes (Homo sapiens, UniProt P07384).
T3 construct: calpain-I—isolated from human erythrocytes; purchased Calbiochem 208713; host or cells: human erythrocytes (tissue isolate)
T3 sequence (P07384 1-714): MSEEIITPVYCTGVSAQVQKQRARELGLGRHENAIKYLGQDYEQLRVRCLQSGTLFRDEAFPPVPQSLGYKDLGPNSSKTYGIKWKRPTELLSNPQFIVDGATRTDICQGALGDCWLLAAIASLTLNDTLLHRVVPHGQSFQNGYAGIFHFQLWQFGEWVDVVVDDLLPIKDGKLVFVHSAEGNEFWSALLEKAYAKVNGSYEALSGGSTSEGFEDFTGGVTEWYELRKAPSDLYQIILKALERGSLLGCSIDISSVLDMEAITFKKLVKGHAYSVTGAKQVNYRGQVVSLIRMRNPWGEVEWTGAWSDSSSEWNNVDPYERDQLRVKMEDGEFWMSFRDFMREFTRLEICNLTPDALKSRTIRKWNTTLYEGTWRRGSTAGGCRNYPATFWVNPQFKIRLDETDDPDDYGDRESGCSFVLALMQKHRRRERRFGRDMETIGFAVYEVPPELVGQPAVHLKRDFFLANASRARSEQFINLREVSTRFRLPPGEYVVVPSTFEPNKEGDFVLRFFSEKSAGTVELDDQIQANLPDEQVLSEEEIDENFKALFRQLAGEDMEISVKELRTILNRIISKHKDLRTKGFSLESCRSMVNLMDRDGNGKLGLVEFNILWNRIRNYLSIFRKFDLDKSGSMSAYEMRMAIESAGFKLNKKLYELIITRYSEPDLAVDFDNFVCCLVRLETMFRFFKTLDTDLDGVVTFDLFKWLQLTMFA
T3 sequence (P04632 1-268 partner): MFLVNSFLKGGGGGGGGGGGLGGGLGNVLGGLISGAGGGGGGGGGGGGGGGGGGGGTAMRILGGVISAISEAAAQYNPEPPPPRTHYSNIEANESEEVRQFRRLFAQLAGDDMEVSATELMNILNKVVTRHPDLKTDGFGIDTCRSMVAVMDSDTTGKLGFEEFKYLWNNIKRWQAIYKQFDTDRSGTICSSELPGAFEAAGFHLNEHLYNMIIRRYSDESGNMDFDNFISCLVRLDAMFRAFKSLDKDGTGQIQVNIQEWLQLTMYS
The test is described as follows: Calpain I kinetic fluorescence enzyme inhibition assay. As to conditions: apparent Ki from IC50 by Cheng-Prussoff; average of 2 to 4 dose-effect plots.

Test [4] deals with T4, cathepsin K activated from recombinant human procathepsin K (Homo sapiens, UniProt P43235).
T4 construct: purchased Calbiochem 342001; host or cells: E. coli
T4 sequence (P43235 115-329): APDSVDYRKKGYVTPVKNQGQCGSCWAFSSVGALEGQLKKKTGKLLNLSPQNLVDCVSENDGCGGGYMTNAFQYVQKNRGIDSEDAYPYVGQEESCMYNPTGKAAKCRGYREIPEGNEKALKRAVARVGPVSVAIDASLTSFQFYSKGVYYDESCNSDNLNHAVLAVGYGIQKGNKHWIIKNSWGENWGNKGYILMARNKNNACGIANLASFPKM
The test is described as follows: Cathepsin K kinetic fluorescence enzyme inhibition assay. Particulars: selectivity ratio versus calpain I.

Test [5] concerns the target T5, cathepsin B isolated from human liver (Homo sapiens, UniProt P07858).
T5 construct: cathepsin B—isolated from human liver; purchased Calbiochem 219362; host or cells: human liver (tissue isolate)
Put plainly: Cathepsin B kinetic fluorescence enzyme inhibition assay. As to conditions: selectivity ratio versus calpain I. The method in brief: as §1

Bounds are passed on as bounds.

T2 sequence (P07711 114-333): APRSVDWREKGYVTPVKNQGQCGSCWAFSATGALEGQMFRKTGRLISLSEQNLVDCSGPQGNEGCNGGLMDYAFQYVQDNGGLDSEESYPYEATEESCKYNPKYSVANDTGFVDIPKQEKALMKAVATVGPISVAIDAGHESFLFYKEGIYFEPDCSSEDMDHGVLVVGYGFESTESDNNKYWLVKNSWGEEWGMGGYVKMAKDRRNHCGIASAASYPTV
T1 sequence (P25774 115-331): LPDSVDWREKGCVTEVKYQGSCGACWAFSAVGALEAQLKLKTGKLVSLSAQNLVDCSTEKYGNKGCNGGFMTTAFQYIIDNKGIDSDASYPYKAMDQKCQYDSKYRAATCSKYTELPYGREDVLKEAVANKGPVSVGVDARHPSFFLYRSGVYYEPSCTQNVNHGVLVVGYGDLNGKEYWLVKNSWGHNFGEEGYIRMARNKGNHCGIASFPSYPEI

Turning to `NC(=O)C(=O)C(Cc1ccccc1)NC(=O)c1cccnc1-n1ccc(-c2c(Cl)cccc2Cl)n1` (centres unmarked) [Example 95, N-[3-Amino-2,3-dioxo-1-(phenylmethyl)propyl]-2-[3-(2,6-dichlorophenyl)-1H-pyrazol-1-yl]pyridine-3-carboxamide], in test [1], the “Sel cat. S (Ki(cathepsin S)/Ki(calpain) ratio)” value is on record as “++ (Ki(cathepsin S)/Ki(calpain) ratio of ≧100)”. Also, in test [2], the “Sel cat. L (Ki(cathepsin L)/Ki(calpain) ratio)” value is recorded as “++ (Ki(cathepsin L)/Ki(calpain) ratio of ≧50)”. Further, in test [3], the Ki is at most 40 nM. Moreover, the “Sel cat. K (Ki(cathepsin K)/Ki(calpain) ratio)” value in test [4] is given as “++ (Ki(cathepsin K)/Ki(calpain) ratio of ≧30)”. The “Sel cat. B (Ki(cathepsin B)/Ki(calpain) ratio)” value in test [5] was “++ (Ki(cathepsin B)/Ki(calpain) ratio of ≧30)”.

For `NC(=O)C(=O)C(Cc1ccccc1)NC(=O)c1cccnc1-n1ccc(-c2cccc(OCc3ccccc3)c2)n1` (centres unmarked) [Example 96, N-[3-Amino-2,3-dioxo-1-(phenylmethyl)propyl]-2-(3-{3-[(phenylmethyl)oxy]phenyl}-1H-pyrazol-1-yl)pyridine-3-carboxamide], the “Sel cat. S (Ki(cathepsin S)/Ki(calpain) ratio)” value in test [1] is on record as “++ (Ki(cathepsin S)/Ki(calpain) ratio of ≧100)”. Besides, the “Sel cat. L (Ki(cathepsin L)/Ki(calpain) ratio)” value in test [2] is recorded as “++ (Ki(cathepsin L)/Ki(calpain) ratio of ≧50)”. Further, the Ki in test [3] was at most 40 nM. In addition, the “Sel cat. K (Ki(cathepsin K)/Ki(calpain) ratio)” value in test [4] was “++ (Ki(cathepsin K)/Ki(calpain) ratio of ≧30)”. The “Sel cat. B (Ki(cathepsin B)/Ki(calpain) ratio)” value in test [5] is reported as “++ (Ki(cathepsin B)/Ki(calpain) ratio of ≧30)”.

Take `COc1ccc(CC(NC(=O)c2cccnc2-n2ccc(-c3ccc(F)cc3F)n2)C(=O)C(N)=O)cc1` (centres unmarked) [Example 97, N-(3-Amino-1-{[4-(methyloxy)phenyl]methyl}-2,3-dioxopropyl)-2-[3-(2,4-difluorophenyl)-1H-pyrazol-1-yl]pyridine-3-carboxamide]: the “Sel cat. S (Ki(cathepsin S)/Ki(calpain) ratio)” value in test [1] is given as “++ (Ki(cathepsin S)/Ki(calpain) ratio of ≧100)”. The “Sel cat. L (Ki(cathepsin L)/Ki(calpain) ratio)” value in test [2] was “++ (Ki(cathepsin L)/Ki(calpain) ratio of ≧50)”. The Ki in test [3] is at most 40 nM. Moreover, in test [4], the “Sel cat. K (Ki(cathepsin K)/Ki(calpain) ratio)” value was “+ (10≦Ki(cathepsin K)/Ki(calpain)<30)”. In addition, the “Sel cat. B (Ki(cathepsin B)/Ki(calpain) ratio)” value in test [5] is “++ (Ki(cathepsin B)/Ki(calpain) ratio of ≧30)”.

Consider `COc1ccc(CC(NC(=O)c2cccnc2-n2ccc(-c3ccc(Cl)cc3Cl)n2)C(=O)C(N)=O)cc1` (centres unmarked) [Example 98, N-(3-Amino-1-{[4-(methyloxy)phenyl]methyl}-2,3-dioxopropyl)-2-[3-(2,4-dichlorophenyl)-1H-pyrazol-1-yl]pyridine-3-carboxamide], for which the “Sel cat. S (Ki(cathepsin S)/Ki(calpain) ratio)” value in test [1] was “++ (Ki(cathepsin S)/Ki(calpain) ratio of ≧100)”. Also, in test [2], the “Sel cat. L (Ki(cathepsin L)/Ki(calpain) ratio)” value was “++ (Ki(cathepsin L)/Ki(calpain) ratio of ≧50)”. The Ki in test [3] is at most 40 nM. Also, the “Sel cat. K (Ki(cathepsin K)/Ki(calpain) ratio)” value in test [4] is recorded as “++ (Ki(cathepsin K)/Ki(calpain) ratio of ≧30)”. Also, the “Sel cat. B (Ki(cathepsin B)/Ki(calpain) ratio)” value in test [5] was “++ (Ki(cathepsin B)/Ki(calpain) ratio of ≧30)”.

Take `NC(=O)C(=O)C(Cc1ccccc1)NC(=O)c1cccnc1-n1ccc(-c2ccc(N3CCOCC3)cc2Cl)n1` (centres unmarked) [Example 99, N-[3-Amino-2,3-dioxo-1-(phenylmethyl)propyl]-2-[3-(2-chloro-4-morpholin-4-ylphenyl)-1H-pyrazol-1-yl]pyridine-3-carboxamide]: the “Sel cat. S (Ki(cathepsin S)/Ki(calpain) ratio)” value in test [1] was “++ (Ki(cathepsin S)/Ki(calpain) ratio of ≧100)”. Besides, the “Sel cat. L (Ki(cathepsin L)/Ki(calpain) ratio)” value in test [2] is listed as “++ (Ki(cathepsin L)/Ki(calpain) ratio of ≧50)”. Further, the Ki in test [3] was at most 40 nM. For the same compound, the “Sel cat. K (Ki(cathepsin K)/Ki(calpain) ratio)” value in test [4] was “++ (Ki(cathepsin K)/Ki(calpain) ratio of ≧30)”. The “Sel cat. B (Ki(cathepsin B)/Ki(calpain) ratio)” value in test [5] was “++ (Ki(cathepsin B)/Ki(calpain) ratio of ≧30)”.

As for `NC(=O)C(=O)C(Cc1ccccc1)NC(=O)c1cccnc1-n1cc2c(n1)-c1ccccc1OC2` (centres unmarked) [Example 100, N-[3-Amino-2,3-dioxo-1-(phenylmethyl)propyl]-2-chromeno[4,3-c]pyrazol-2(4H)-ylpyridine-3-carboxamide], the “Sel cat. S (Ki(cathepsin S)/Ki(calpain) ratio)” value in test [1] is on record as “++ (Ki(cathepsin S)/Ki(calpain) ratio of ≧100)”. Besides, in test [2], the “Sel cat. L (Ki(cathepsin L)/Ki(calpain) ratio)” value is “++ (Ki(cathepsin L)/Ki(calpain) ratio of ≧50)”. In addition, the Ki in test [3] is at most 40 nM. In addition, in test [4], the “Sel cat. K (Ki(cathepsin K)/Ki(calpain) ratio)” value is given as “++ (Ki(cathepsin K)/Ki(calpain) ratio of ≧30)”. In addition, the “Sel cat. B (Ki(cathepsin B)/Ki(calpain) ratio)” value in test [5] is “+ (10≦Ki(cathepsin B)/Ki(calpain)<30)”.

Turning to `NC(=O)C(=O)C(Cc1ccccc1)NC(=O)c1cccnc1-n1ccc(-c2ccc(N3CCOCC3)cc2F)n1` (centres unmarked) [Example 102, N-[3-Amino-2,3-dioxo-1-(phenylmethyl)propyl]-2-[3-(2-fluoro-4-morpholin-4-ylphenyl)-1H-pyrazol-1-yl]pyridine-3-carboxamide], the “Sel cat. S (Ki(cathepsin S)/Ki(calpain) ratio)” value in test [1] was “++ (Ki(cathepsin S)/Ki(calpain) ratio of ≧100)”. In addition, the “Sel cat. L (Ki(cathepsin L)/Ki(calpain) ratio)” value in test [2] was “++ (Ki(cathepsin L)/Ki(calpain) ratio of ≧50)”. The Ki in test [3] was at most 40 nM. The “Sel cat. K (Ki(cathepsin K)/Ki(calpain) ratio)” value in test [4] is “++ (Ki(cathepsin K)/Ki(calpain) ratio of ≧30)”. For the same compound, in test [5], the “Sel cat. B (Ki(cathepsin B)/Ki(calpain) ratio)” value is given as “+ (10≦Ki(cathepsin B)/Ki(calpain)<30)”.

For the compound `NC(=O)C(=O)C(Cc1ccccc1)NC(=O)c1cccnc1-n1ccc(-c2ccc(Cl)s2)n1` (centres unmarked) [Example 103, N-[3-Amino-2,3-dioxo-1-(phenylmethyl)propyl]-2-[3-(5-chloro-2-thienyl)-1H-pyrazol-1-yl]pyridine-3-carboxamide], the “Sel cat. S (Ki(cathepsin S)/Ki(calpain) ratio)” value in test [1] is given as “++ (Ki(cathepsin S)/Ki(calpain) ratio of ≧100)”. In test [2], the “Sel cat. L (Ki(cathepsin L)/Ki(calpain) ratio)” value is recorded as “++ (Ki(cathepsin L)/Ki(calpain) ratio of ≧50)”. The Ki in test [3] was at most 40 nM. For the same compound, the “Sel cat. K (Ki(cathepsin K)/Ki(calpain) ratio)” value in test [4] is on record as “+ (10≦Ki(cathepsin K)/Ki(calpain)<30)”. For the same compound, the “Sel cat. B (Ki(cathepsin B)/Ki(calpain) ratio)” value in test [5] is listed as “+ (10≦Ki(cathepsin B)/Ki(calpain)<30)”.

Take `NC(=O)C(=O)[C@H](Cc1ccccc1)NC(=O)c1cccnc1-n1ccc(-c2ccccc2)n1` [Example 107, N-[(1S)-3-Amino-2,3-dioxo-1-(phenylmethyl)propyl]-2-(3-phenyl-1H-pyrazol-1-yl)pyridine-3-carboxamide]: the “Sel cat. S (Ki(cathepsin S)/Ki(calpain) ratio)” value in test [1] is “++ (Ki(cathepsin S)/Ki(calpain) ratio of ≧100)”. Besides, the “Sel cat. L (Ki(cathepsin L)/Ki(calpain) ratio)” value in test [2] was “++ (Ki(cathepsin L)/Ki(calpain) ratio of ≧50)”. In addition, in test [3], the Ki was at most 40 nM. The “Sel cat. K (Ki(cathepsin K)/Ki(calpain) ratio)” value in test [4] was “+ (10≦Ki(cathepsin K)/Ki(calpain)<30)”. Besides, the “Sel cat. B (Ki(cathepsin B)/Ki(calpain) ratio)” value in test [5] is listed as “+ (10≦Ki(cathepsin B)/Ki(calpain)<30)”.

`NC(=O)C(=O)C(Cc1ccccc1)NC(=O)c1cccnc1-n1ccc(-c2sccc2Cl)n1` (centres unmarked) [Example 109, N-[3-Amino-2,3-dioxo-1-(phenylmethyl)propyl]-2-[3-(3-chloro-2-thienyl)-1H-pyrazol-1-yl]pyridine-3-carboxamide]: the “Sel cat. S (Ki(cathepsin S)/Ki(calpain) ratio)” value in test [1] is given as “++ (Ki(cathepsin S)/Ki(calpain) ratio of ≧100)”. Moreover, the “Sel cat. L (Ki(cathepsin L)/Ki(calpain) ratio)” value in test [2] is given as “++ (Ki(cathepsin L)/Ki(calpain) ratio of ≧50)”. In test [3], the Ki was at most 40 nM. In test [4], the “Sel cat. K (Ki(cathepsin K)/Ki(calpain) ratio)” value was “++ (Ki(cathepsin K)/Ki(calpain) ratio of ≧30)”. Moreover, the “Sel cat. B (Ki(cathepsin B)/Ki(calpain) ratio)” value in test [5] was “++ (Ki(cathepsin B)/Ki(calpain) ratio of ≧30)”.

The values are drawn from patent US7728012B2, “Carboxamide compounds and their use as calpain inhibitors” (Abbott GmbH & Co. KG, priority 2006, dated 2010).
